{
  "source": "patent US20210246439A1",
  "about": "“ENGINEERED BI-STABLE TOGGLE SWITCH AND USES THEREOF” (Massachusetts Institute of Technology, priority 2020, published 2021)",
  "molecules": {"B1": {"name": "DDe-DDe-Csy4: fusion protein of two DDe domains and Csy4, nucleotide sequence SEQ ID NO: 5 (protein)", "chain": "MSLALSLTADQMVSALLDAEPPILYSEYDPTRPFSEASMMGLLTNLADRELVHMINWAKRVPGFVDLALHDQVHLLECAWMEILMIGLVWRSMEHPGKLLFAPNLLLDRNQGKCVEGGVEIFDMLLATSSRFRMMNLQGEEFVCLKSIILLNSGVYTFLSSTLKSLEEKDHIHRVLDKITDTLIHLMAKAGLTLQQQHQRLAQLLLILSHIRHMSSKRMEHLYSMKCKNVVPLSDLLLEMLDAHRLMSLALSLTADQMVSALLDAEPPILYSEYDPTRPFSEASMMGLLTNLADRELVHMINWAKRVPGFVDLALHDQVHLLECAWMEILMIGLVWRSMEHPGKLLFAPNLLLDRNQGKCVEGGVEIFDMLLATSSRFRMMNLQGEEFVCLKSIILLNSGVYTFLSSTLKSLEEKDHIHRVLDKITDTLIHLMAKAGLTLQQQHQRLAQLLLILSHIRHMSSKRMEHLYSMKCKNVVPLSDLLLEMLDAHRLMDHYLDIRLRPDPEFPPAQLMSVLFGKLHQALVAQGGDRIGVSFPDLDESRSRLGERLRIHASADDLRALLARPWLEGLRDHLQFGEPAVVPHPTPYRQVSRVQAKSNPERLRRRLMRRHDLSEEEARKRIPDTVARALDLPFVTLRSQSTGQHFRLFIRHGPLQVTAEEGGFTCYGLSKGGFVPWF"}, "B2": {"name": "DDd-CasE: fusion protein of DDd domain and CasE, nucleotide sequence SEQ ID NO: 6 (protein)", "chain": "MYLSKIIIARAWSRDLYQLHQELWHLFPNRPDAARDFLFHVEKRNTPEGCHVLLQSAQMPVSTAVATVIKTKQVEFQLQVGVPLYFRLRANPIKTILDNQKRLDSKGNIKRCRVPLIKEAEQIAWLQRKLGNAARVEDVHPISERPQYFSGEGKNGKIQTVCFEGVLTINDAPALIDLLQQGIGPAKSMGCGLLSLAPLMISLIAALAVDYVIGMENAMPWNLPADLAWFKRNTLNKPVIMGRHTWESIGRPLPGRKNIILSSQPSTDDRVTWVKSVDEAIAACGDVPEIMVIGGGRVIEQFLPKAQKLYLTHIDAEVEGDTHFPDYEPDDWESVFSEFHDADAQNSHSYCFEILERR"}},
  "key": {"[1]": {"test_system": "engineered bi-stable toggle switch (CasE-PEST, Csy4-PEST, DDd-CasE, DDe-DDe-Csy4) in HEK293 cells", "assay": "Toggle switch with DDd-CasE and DDe-DDe-Csy4 in transfected HEK293 cells, small-molecule control, flow cytometry of mKO2/eYFP", "type": "cell-based, human", "description": "Output fluorescent protein genes may also contain PERSIST activation domains to decrease expression in the OFF state. […] Further, HEK293 cells were transfected with CasE-PEST, Csy4-PEST, DDd-CasE and DDe-DDe-Csy4 transiently and cultured in the absence of small molecule for 24 hours."}, "[2]": {"test_system": "CasE target hairpin containing a theophylline responsive aptamer", "assay": "Proof of concept: CasE target hairpin with theophylline responsive aptamer 5' of eYFP, co-delivered with CasE", "type": "cell-based, human", "conditions": "HEK293 cells, versus absence of theophylline", "text": "Alternatively, the engineered bi-stable toggle switch described in Example 1 can be designed to be able to respond to different small molecules to switch the system between different states. In this system, each of the endoRNAse target sites can include a small molecule-response aptamers. Binding of the small molecule to the aptamer stabilizes a secondary structure in the aptamer RNA that blocks the endoRNAse from cleaving its recognition hairpin. As illustrated by FIG. 4A, the CRISPR-endoRNAse recognition hairpin contains an aptamer sequence capable of binding to a small molecule. In the absence of the small molecule, the endoRNAse is able to cleave the recognition hairpin; however, the addition of the small molecule to the system induces a conformational change of the endoRNAse target hairpin, and such conformational change renders the endoRNAse incapable of binding and cleaving its target hairpin. […] In this experiment, a CasE target hairpin containing a theophylline responsive aptamer was placed 5′ of an eYFP coding sequence in an eYFP-expressing construct. This eYFP-expressing construct was co-delivered to HEK293 cells with another construct expressing CasE."}, "[3]": {"test_system": "engineered bi-stable motif", "assay": "Screening of promoter and degradation domain combinations with Csy4 on the bi-stable motif (polytransfection, eYFP/TagBFP)", "type": "cell-based", "description": "Csy4 was first selected to be fused with either one copy or two copies of DDd domain or DDe domain respectively: DDe-Csy4, DDe-DDe-Csy4, DDd-Csy4, and DDd-DDd-Csy4. Various promoters (e.g., phEF1α, pUbc, and pPh1f) were used to drive the expression of the Csy4 or Csy4-degradation domain fusion proteins. pPh1f promoters were tested in the presence of Gal4-NLS-VP64. As a result, the following constructs were generated: phEF1α-Csy4, pUbc-DDd-Csy4, pUbc-DDd-DDd-Csy4, pPh1f-DDd-DDd-Csy4, pPh1f-DDd-Csy4-PEST, pPh1f-DDe-Csy4, pUbc-DDe-Csy4, pUbc-DDe-Csy4-PEST, pPh1f-DDe-DDe-Csy4, pUbc-DDe-DDe-Csy4, and pUbc-DDe-DDe-Csy4-PEST. Each of the constructs and the engineered bi-stable toggle switch described in Example 1 were delivered to the cells by polytransfection (Gam et al, A ‘poly-transfection’ method for rapid, one-pot characterization and optimization of genetic systems, Nucleic Acids Research, Volume 47, Issue 18, 10 Oct. 2019, Page e106). The output molecules were eYFP and TagBFP. The system was designed such that Csy4 represses eYFP and CasE represses TagBFP. A cell in the CasE-high state expressed eYFP and a cell in the Csy4-high state expresses TagBFP. The ratio between CasE to Csy4 was set at 6.7 times as much CasE as Csy4, biasing the system towards a CasE-high state in the absence of additional proteins. […]"}, "[4]": {"test_system": "engineered bi-stable motif", "assay": "Screening of DDd-CasE fusion proteins on the bi-stable motif (polytransfection, eYFP/TagBFP)", "type": "cell-based", "conditions": "hEF1α promoter, among CasE-DDd fusions screened", "description": "Further, fusion proteins between CasE and one or more DDd domains were screened similarly as described above. In this experiment, only hEF1α promoter was tested. Each of the construct and the engineered bi-stable toggle switch described in Example 1 were delivered to the cells by polytransfection. The output molecules were eYFP and TagBFP. The system was designed such that Csy4 represses eYFP and CasE represses TagBFP. A cell in the CasE-high state expressed eYFP and a cell in the Csy4-high state expresses TagBFP. The ratio between CasE to Csy4 was set at 1.6 times as much Csy4 as CasE, biasing the system towards a Csy4-high state in the absence of additional proteins."}},
  "data": [
    {"molecule": "4-hydroxytamoxifen [4-OHT]", "values": [
      {"measurement": "state the bi-stable toggle switch stabilizes on", "setting": "[1]; small molecule in the system for 24 hours", "value": "Csy4-high/CasE-low state (mKO2-high/eYFP-low)"}
    ]},
    {"molecule": "Cn1c(=O)c2[nH]cnc2n(C)c1=O", "note": "[theophylline]", "values": [
      {"measurement": "eYFP expression in the presence of theophylline (repression by CasE lifted)", "setting": "[2]", "value": "two-folds increase"}
    ]},
    {"molecule": "COc1cc(Cc2cnc(N)nc2N)cc(OC)c1OC", "note": "[TMP, trimethoprim]", "values": [
      {"measurement": "reporter expression after small molecule addition", "setting": "[1]; 10 μM added at 24 hrs and maintained for 48 hrs, roughly equal mKO2 and eYFP before addition", "value": "higher frequencies of eYFP expression than mKO2 expression"}
    ]},
    {"molecule": "B1", "values": [
      {"measurement": "capability of (i) being degraded in the absence of 4-OHT and (ii) cleaving RNA efficiently in the presence of 4-OHT", "setting": "[3]; among Csy4 fusion constructs screened", "value": "best capability"},
      {"measurement": "fraction of cells in the TagBFP high state with versus without 4-OHT", "setting": "[3]; regardless of promoter, especially in higher ratio bins", "value": "higher fraction of cells in the TagBFP high state when 4-OHT is present than without"}
    ]},
    {"molecule": "B2", "values": [
      {"measurement": "being degraded in the absence of TMP and cleaving RNA in the presence of TMP", "setting": "[4]", "value": "better at (i) being degraded in the absence of TMP; and (ii) cleaving RNA efficiently in the presence of TMP"}
    ]}
  ]
}
